Here are results for four compounds from PMC8865417, “Receptor Interaction Profiles of 4-Alkoxy-3,5-Dimethoxy-Phenethylamines (Mescaline Derivatives) and Related Amphetamines” (Frontiers in Pharmacology, 2022).

One assay deals with T1, h5-HT2A receptor (Homo sapiens, UniProt P28223).
T1 construct: expressed in transfected cells; host or cells: HEK 293 cells (membrane preparations)
Nature of the assay: Radioligand binding at h5-HT2A receptor ([3H]ketanserin). Conditions: for Selectivity 5-HT2A vs. 5-HT2C / Selectivity 5-HT2A vs. 5-HT1A: binding ratio; for Ki: h5-HT2A Receptor binding Ki ± SD, [3H]ketanserin, mean ± SD.

The next assay concerns the target T2, h5-HT2C receptor (Homo sapiens, UniProt P28335).
T2 construct: expressed in transfected cells; host or cells: HEK 293 cells (membrane preparations)
T2 sequence (P28335 33-458): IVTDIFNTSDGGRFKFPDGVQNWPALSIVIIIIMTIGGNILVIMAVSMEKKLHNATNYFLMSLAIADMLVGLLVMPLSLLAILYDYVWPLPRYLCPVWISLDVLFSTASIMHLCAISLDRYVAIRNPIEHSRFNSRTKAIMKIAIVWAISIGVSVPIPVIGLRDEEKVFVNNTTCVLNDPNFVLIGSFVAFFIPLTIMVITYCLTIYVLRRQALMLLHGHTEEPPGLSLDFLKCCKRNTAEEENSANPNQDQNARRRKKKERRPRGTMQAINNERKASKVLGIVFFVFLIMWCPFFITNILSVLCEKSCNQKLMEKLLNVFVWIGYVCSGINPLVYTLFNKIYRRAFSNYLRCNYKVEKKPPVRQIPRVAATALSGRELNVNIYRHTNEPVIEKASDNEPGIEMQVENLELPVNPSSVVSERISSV
Nature of the assay: biochemical. As to conditions: for Ki: [3H]mesulergine, mean ± SD, read-out: h5-HT2C Receptor binding Ki ± SD. The format is binding.

Another assay concerns the target T3, human TAAR1 (Homo sapiens, UniProt Q96RJ0).
T3 construct: expressed in transfected cells; host or cells: HEK 293 cells
T3 sequence (Q96RJ0 1-339): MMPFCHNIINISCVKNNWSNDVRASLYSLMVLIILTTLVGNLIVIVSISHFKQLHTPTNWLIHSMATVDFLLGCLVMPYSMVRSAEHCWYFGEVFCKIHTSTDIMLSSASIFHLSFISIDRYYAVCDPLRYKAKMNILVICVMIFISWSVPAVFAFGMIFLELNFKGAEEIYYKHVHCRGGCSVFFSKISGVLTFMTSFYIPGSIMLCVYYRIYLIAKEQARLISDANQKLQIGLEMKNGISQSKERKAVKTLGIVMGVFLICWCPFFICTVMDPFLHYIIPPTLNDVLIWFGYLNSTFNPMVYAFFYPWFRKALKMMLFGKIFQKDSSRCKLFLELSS
Nature of the assay: Activity at the human TAAR1 (cAMP assay, HEK 293 cells). The format is cell-based. As to the method:
Once 80–90% confluency was reached, the cells were collected by removing the medium, washing with PBS and then adding 5 ml of trypsin/EDTA solution for 5 min at 37°C. Next, 45 ml of medium was added and the entire mixture was transferred into a falcon tube. The tube was then centrifuged at room temperature for 3 min at 900 revolutions per minute (rpm). Next, the supernatant was removed in order to resuspend the remaining cell pellet in fresh medium to 5 × 10^5 cells/ml. Hundred microliter of the cells was transferred into a 96-well plate ([…]; BIOCOAT 6640, Becton Dickinson, Allschwil, Switzerland) and incubated for 20 h at 37°C.
For the cAMP assay, the aspirated medium was replaced with 50 μl PBS without Ca^2+ and Mg^2+ ions. Using snap inversion, the PBS was extracted and the plate was gently tapped against tissue. Next, 90 μl of Krebs-Ringer Bicarbonate buffer (KRB, Sigma-Aldrich) containing 1 mM IBMX was added and incubated for 60 min at 37°C and 5% CO2/95% air. Each test compound was examined in duplicate in a concentration range between 300 pM and 30 μM. A standard curve with a range of cAMP concentrations (0.13 nM–10 μM) was created for each 96-well plate. Each experiment was accompanied with a reference plate that included RO5256390, β-phenylethylamine and p-tyramine. The cells were exposed to either 30 μl of compound solution, 30 μl of β-phenylethylamine (as maximal response), or a basal control in PBS (containing 1 mM IBMX) for 40 min at 37°C. Next, under forceful shaking using black lids, the cells were exposed to 50 μl of 3× detection mix solution (composed of Ru-cAMP Alexa700 anti-cAMP antibody and lysis buffer) for 120 min at room temperature. Using the NanoScan reader (Innovate Optische Messtechnik, Berlin, Germany; 456 nm excitation wavelength; 630 and 700 nm emission wavelengths), the fluorescence was examined and the FRET signal was determined using the following equation; FRET (700 nm)- P × FRET (630 nm), where P = Ru (700 nm)/Ru (630 nm).
(In general: cAMP levels reflect the balance of adenylyl cyclase and phosphodiesterase activity.)

A further assay deals with T4, rat TAAR1 (Rattus norvegicus, UniProt Q923Y9).
T4 construct: expressed in transfected cells; host or cells: HEK 293 cells (membrane preparations)
Nature of the assay: Radioligand binding at rat TAAR1 ([3H]RO5166017).

In another assay the target is T5, mouse TAAR1 (Mus musculus, UniProt Q923Y8).
T5 construct: expressed in transfected cells; host or cells: HEK 293 cells (membrane preparations)
In words: Radioligand binding at mouse TAAR1 ([3H]RO5166017).

The next assay deals with T6, hα2A adrenergic receptor (Homo sapiens, UniProt P08913).
T6 construct: expressed in transfected cells; host or cells: Chinese hamster lung cells (membrane preparations)
T6 sequence (P08913 1-465): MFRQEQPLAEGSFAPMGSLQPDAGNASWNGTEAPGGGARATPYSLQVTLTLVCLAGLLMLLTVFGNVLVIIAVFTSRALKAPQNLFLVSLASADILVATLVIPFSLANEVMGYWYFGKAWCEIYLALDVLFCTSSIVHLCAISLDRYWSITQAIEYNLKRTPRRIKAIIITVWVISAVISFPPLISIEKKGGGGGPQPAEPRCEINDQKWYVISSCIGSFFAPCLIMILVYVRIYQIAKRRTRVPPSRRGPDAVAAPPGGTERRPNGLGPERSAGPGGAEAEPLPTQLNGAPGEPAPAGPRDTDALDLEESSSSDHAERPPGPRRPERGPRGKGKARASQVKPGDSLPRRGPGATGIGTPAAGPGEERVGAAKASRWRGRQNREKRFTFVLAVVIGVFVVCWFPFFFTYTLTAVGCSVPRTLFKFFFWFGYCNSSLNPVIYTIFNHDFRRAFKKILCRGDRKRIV
In words: Radioligand binding at hα2A adrenergic receptor ([3H]rauwolscine).

The target in assay [1] is T7, dopaminergic hD2 receptor (Homo sapiens, UniProt P14416).
T7 construct: expressed in transfected cells; host or cells: HEK 293 cells (membrane preparations)
Nature of the assay: Radioligand binding at dopaminergic hD2 receptor ([3H]spiperone).

The next assay deals with T8, hNET (Homo sapiens, UniProt P23975).
T8 construct: expressed in transfected cells; host or cells: HEK 293 cells (membrane preparations)
Nature of the assay: Radioligand binding at hNET (N-methyl-[3H]nisoxetine).

The target in another assay is T9, hDAT (Homo sapiens, UniProt Q01959).
T9 construct: expressed in transfected cells; host or cells: HEK 293 cells (membrane preparations)
In words: Radioligand binding at hDAT ([3H]WIN35,428).

The target of a further assay is T10, hSERT (Homo sapiens, UniProt P31645).
T10 construct: expressed in transfected cells; host or cells: HEK 293 cells (membrane preparations)
Nature of the assay: Radioligand binding at hSERT ([3H]citalopram).

A further assay deals with human 5-HT2B receptor (Homo sapiens, UniProt P41595). Conditions: h5-HT2B Activation potency EC50 ± SD, HEK 293 cells, calcium FLIPR; mean ± SD.

Where only a bound is given, the exact number is not on record here.

T8 sequence (P23975 whole entry): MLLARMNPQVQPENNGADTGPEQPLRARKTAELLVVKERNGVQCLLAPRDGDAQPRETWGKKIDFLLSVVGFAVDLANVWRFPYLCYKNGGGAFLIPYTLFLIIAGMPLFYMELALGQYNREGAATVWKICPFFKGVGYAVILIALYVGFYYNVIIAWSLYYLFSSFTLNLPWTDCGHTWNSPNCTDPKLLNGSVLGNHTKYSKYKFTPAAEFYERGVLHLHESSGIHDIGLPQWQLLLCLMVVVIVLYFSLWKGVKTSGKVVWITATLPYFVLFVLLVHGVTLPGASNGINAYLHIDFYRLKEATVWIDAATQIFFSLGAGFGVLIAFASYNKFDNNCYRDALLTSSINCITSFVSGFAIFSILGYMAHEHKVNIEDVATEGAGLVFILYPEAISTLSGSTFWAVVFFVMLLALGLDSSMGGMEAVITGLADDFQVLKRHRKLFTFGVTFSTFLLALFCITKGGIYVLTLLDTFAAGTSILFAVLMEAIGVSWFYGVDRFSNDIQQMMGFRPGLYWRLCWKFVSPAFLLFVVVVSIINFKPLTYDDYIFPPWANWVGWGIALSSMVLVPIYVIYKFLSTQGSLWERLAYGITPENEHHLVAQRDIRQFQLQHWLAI
T5 sequence (Q923Y8 whole entry): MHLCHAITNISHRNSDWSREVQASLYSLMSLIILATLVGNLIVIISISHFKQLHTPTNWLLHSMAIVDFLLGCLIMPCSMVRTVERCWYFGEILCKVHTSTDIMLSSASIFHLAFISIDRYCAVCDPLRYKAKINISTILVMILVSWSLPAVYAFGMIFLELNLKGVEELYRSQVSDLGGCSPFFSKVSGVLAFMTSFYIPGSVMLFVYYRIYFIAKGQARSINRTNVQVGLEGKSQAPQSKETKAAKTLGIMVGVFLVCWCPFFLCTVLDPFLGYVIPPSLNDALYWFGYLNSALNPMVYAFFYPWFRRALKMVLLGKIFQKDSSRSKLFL
T4 sequence (Q923Y9 whole entry): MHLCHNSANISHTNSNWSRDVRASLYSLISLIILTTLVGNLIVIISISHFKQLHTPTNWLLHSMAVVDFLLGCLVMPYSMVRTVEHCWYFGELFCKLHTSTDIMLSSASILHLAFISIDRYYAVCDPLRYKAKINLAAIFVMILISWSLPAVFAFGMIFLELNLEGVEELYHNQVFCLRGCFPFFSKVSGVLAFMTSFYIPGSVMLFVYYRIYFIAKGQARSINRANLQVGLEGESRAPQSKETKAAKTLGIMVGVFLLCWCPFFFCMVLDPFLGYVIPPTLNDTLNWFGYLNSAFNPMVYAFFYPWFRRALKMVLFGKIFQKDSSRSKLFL
T9 sequence (Q01959 whole entry): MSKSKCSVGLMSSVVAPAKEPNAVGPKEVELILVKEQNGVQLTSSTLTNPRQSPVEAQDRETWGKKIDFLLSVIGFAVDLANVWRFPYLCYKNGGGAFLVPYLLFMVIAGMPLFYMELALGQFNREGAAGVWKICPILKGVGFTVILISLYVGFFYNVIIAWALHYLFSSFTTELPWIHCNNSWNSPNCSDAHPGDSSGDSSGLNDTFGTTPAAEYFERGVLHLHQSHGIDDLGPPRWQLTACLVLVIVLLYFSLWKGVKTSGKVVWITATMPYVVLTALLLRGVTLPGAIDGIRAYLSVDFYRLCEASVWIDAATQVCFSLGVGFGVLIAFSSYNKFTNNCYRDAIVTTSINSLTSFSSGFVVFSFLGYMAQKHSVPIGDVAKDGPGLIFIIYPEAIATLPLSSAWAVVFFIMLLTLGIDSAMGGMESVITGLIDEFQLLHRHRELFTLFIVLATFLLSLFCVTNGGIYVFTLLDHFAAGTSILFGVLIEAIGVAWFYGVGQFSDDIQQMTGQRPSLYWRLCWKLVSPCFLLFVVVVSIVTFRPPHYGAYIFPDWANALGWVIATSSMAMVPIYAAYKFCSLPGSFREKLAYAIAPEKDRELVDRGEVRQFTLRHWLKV
Sequence of human 5-HT2B receptor (P41595 whole entry): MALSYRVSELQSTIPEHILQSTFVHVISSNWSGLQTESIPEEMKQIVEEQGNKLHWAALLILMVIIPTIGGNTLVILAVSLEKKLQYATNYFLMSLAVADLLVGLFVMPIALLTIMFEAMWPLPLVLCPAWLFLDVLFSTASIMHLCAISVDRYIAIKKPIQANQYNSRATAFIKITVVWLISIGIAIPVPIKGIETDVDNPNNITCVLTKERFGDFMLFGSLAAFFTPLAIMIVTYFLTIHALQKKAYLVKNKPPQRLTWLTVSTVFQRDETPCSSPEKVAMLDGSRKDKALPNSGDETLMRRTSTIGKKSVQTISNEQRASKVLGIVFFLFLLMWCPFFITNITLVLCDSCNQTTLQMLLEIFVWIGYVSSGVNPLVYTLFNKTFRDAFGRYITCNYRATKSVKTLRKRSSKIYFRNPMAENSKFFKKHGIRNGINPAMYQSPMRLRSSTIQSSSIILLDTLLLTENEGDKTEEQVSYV
T10 sequence (P31645 whole entry): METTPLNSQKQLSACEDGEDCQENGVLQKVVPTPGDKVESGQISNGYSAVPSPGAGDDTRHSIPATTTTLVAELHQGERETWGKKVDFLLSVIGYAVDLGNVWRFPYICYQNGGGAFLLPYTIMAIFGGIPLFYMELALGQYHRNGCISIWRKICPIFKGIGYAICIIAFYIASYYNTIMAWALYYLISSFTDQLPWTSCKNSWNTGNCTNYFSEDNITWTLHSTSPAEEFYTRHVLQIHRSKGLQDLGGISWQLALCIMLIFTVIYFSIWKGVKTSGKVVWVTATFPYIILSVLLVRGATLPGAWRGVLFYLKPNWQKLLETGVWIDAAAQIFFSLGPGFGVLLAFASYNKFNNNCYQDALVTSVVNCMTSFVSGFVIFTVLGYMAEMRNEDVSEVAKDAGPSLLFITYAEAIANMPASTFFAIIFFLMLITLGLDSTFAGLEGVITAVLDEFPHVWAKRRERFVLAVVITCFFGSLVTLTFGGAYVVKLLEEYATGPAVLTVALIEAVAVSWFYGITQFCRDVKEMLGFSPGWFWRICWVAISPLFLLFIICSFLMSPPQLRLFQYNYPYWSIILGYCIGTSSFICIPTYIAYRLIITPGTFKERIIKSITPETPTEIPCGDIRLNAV
T1 sequence (P28223 whole entry): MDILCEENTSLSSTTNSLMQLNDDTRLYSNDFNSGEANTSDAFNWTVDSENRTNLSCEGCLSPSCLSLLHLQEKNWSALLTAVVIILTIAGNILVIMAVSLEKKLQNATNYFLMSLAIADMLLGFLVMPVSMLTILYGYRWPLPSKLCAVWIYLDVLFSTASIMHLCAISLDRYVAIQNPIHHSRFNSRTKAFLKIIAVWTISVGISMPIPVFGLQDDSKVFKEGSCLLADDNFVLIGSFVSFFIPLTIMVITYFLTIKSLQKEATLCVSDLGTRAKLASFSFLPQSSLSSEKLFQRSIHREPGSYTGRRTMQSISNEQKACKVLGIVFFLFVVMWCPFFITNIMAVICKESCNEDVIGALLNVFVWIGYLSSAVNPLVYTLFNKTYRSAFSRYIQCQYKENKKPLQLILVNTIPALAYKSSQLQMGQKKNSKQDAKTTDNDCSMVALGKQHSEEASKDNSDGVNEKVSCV
T7 sequence (P14416 whole entry): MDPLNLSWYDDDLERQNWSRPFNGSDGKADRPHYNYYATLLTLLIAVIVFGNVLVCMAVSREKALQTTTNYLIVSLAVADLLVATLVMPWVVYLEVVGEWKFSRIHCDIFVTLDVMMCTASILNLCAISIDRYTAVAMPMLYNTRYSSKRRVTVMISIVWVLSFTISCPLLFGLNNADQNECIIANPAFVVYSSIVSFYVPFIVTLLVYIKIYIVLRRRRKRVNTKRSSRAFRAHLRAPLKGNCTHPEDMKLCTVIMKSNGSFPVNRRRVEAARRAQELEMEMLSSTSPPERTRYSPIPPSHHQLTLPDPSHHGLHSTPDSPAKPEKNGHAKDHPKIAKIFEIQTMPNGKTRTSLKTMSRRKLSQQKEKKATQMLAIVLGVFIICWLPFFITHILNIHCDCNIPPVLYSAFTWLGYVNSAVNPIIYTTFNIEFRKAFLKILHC

One may read the Ki as the equilibrium dissociation constant of an inhibitor or competing ligand from its target. For orientation: EC50 means the concentration giving half of the maximal effect. In the case of `CCCOc1c(OC)cc(CC(C)N)cc1OC` (centres unmarked) [compound 28, 3,5-dimethoxy-4-propyloxyamphetamine], the “Selectivity 5-HT2A vs. 5-HT2C” value at h5-HT2A receptor was determined as 2.0. Besides, the Ki on h5-HT2A receptor is 1 µM; on h5-HT2C receptor, 2 µM; at rat TAAR1 it was 3.4 µM; on mouse TAAR1, 1.8 µM; at hα2A adrenergic receptor, 4.6 µM; in assay [1], greater than 6.3 µM. Further, the Ki was greater than 9.7 µM at hNET, greater than 8.5 µM at hDAT and greater than 7.5 µM at hSERT. At h5-HT2A receptor (ratio of Ki values), the “Increase in 5-HT2A receptor affinity compared with TMA (6)” value was no less than 10 fold. The 50% effective concentration (EC50) at human TAAR1 and on human 5-HT2B receptor was greater than 10 µM in each case.

Regarding `COc1cc(CCN)cc(OC)c1OC1CC1` [compound 29, 4-cyclopropyloxy-3,5-dimethoxyphenethylamine], at h5-HT2A receptor, the “Selectivity 5-HT2A vs. 5-HT1A” value is reported as 0.9. Besides, at h5-HT2A receptor, the “Selectivity 5-HT2A vs. 5-HT2C” value came to 1.3. Further, the inhibition constant (Ki) was 4.3 µM at h5-HT2A receptor; 5.6 µM on h5-HT2C receptor; 1.2 µM on rat TAAR1; greater than 4.2 µM on mouse TAAR1; 1.2 µM at hα2A adrenergic receptor; greater than 6.3 µM in assay [1]. The Ki at hNET is greater than 9.7 µM; on hDAT, greater than 8.5 µM; on hSERT, greater than 7.5 µM. Moreover, the EC50 on human TAAR1 and at human 5-HT2B receptor was greater than 10 µM throughout.

Take `C=C(C)COc1c(OC)cc(CCN)cc1OC` [compound 32, 3,5-dimethoxy-4-methallyloxyphenethylamine]: the “Selectivity 5-HT2A vs. 5-HT1A” value at h5-HT2A receptor was determined as 9.3. Moreover, the “Selectivity 5-HT2A vs. 5-HT2C” value at h5-HT2A receptor came to 0.9. In addition, the Ki on h5-HT2A receptor is 0.55 ± 0.19 µM; at h5-HT2C receptor it was 0.52 ± 0.15 µM; at rat TAAR1, 1 µM; on mouse TAAR1, 3.9 µM; at hα2A adrenergic receptor, 1.5 µM; in [1] it was greater than 6.3 µM. Also, the inhibition constant (Ki) at hNET was greater than 9.7 µM; on hDAT, greater than 8.5 µM; on hSERT it was greater than 7.5 µM. Further, the “Higher affinity at the 5-HT2A receptor compared to mescaline (5)” value at h5-HT2A receptor (ratio of Ki values) was 17- to 63 fold. Besides, the “Higher affinity at the 5-HT2C receptor than mescaline (5)” value on h5-HT2C receptor was 19- to 34 fold. Also, the half-maximal effective concentration (EC50) on human TAAR1 and at human 5-HT2B receptor was greater than 10 µM in each case.

Consider `COc1cc(CCN)cc(OC)c1OCc1ccccc1` [compound 33, 4-benzyloxy-3,5-dimethoxyphenethylamine], for which the “Selectivity 5-HT2A vs. 5-HT1A” value at h5-HT2A receptor was determined as 29. Besides, on h5-HT2A receptor, the “Selectivity 5-HT2A vs. 5-HT2C” value was determined as 2.9. The Ki was 0.15 ± 0.01 µM on h5-HT2A receptor; 0.44 ± 0.12 µM at h5-HT2C receptor; 0.11 ± 0.01 µM on rat TAAR1; 2.4 µM on mouse TAAR1; 2.3 µM at hα2A adrenergic receptor; greater than 6.3 µM in assay [1]. Also, the inhibition constant Ki was greater than 9.7 µM on hNET, greater than 8.5 µM on hDAT and greater than 7.5 µM on hSERT. The “Higher affinity at the 5-HT2A receptor compared to mescaline (5)” value on h5-HT2A receptor (ratio of Ki values) was 17- to 63 fold. The “Higher affinity at the 5-HT2C receptor than mescaline (5)” value on h5-HT2C receptor was 19- to 34 fold. For the same compound, the EC50 at human TAAR1 and at human 5-HT2B receptor was greater than 10 µM throughout.
